According to US11980607B2, “Methods of treating malignant lymphoproliferative disorders” (Actuate Therapeutics Inc., priority 2018, dated 2024):

What was measured:
Jeko = assay: Proliferation assay (thymidine uptake); format: cell-based; conditions: Homo sapiens; Jeko (MCL), 48 hours then thymidine pulse; read-out: IC50 (μM) on Cell proliferation
Method: (§1) Cells were seeded at 1×10^4 cells/well in 96 well plates, and incubated with 9-ING-41 at indicated concentrations for 48 hours followed by pulsing with tritium labeled thymidine for overnight before being analyzed for thymidine uptake.
(§2) The IC50S of 9-ING-41 on cell survival and proliferation was calculated using an on-line IC50 calculation tool (https://www.aatbio.com/tools/ic50-calculator/).
(§3) 9-ING-41 can specifically induce lymphoma cell apoptosis without affecting normal lymphocytes. The thymidine incorporation assay in the presence or absence of 9-ING-41 was performed to test the role of GSK3 in lymphoma cell proliferation. […] The DLBCL lines required slightly higher concentrations. The IC50 of 9-ING-41 on cell proliferation for various lymphoma cell lines was calculated (Table 1).

SU-DHL6 = assay: Proliferation assay (thymidine uptake); format: cell-based; conditions: Homo sapiens, SU-DHL-6; SU-DHL6 (DLBCL), 48 hours then thymidine pulse; read-out: IC50 (μM) on Cell proliferation
Method: as §1, §2, §3

MyLa = assay: Proliferation assay (thymidine uptake); format: cell-based; conditions: Homo sapiens; MyLa (TCL), 48 hours then thymidine pulse; read-out: IC50 (μM) on Cell proliferation
Method: as §1, §2, §3

Granta-519 = assay: Proliferation assay (thymidine uptake); format: cell-based; conditions: Homo sapiens; Granta-519 (MCL), 48 hours then thymidine pulse; read-out: IC50 (μM) on Cell proliferation
Method: as §1, §2, §3

OCI-LY19 = assay: Proliferation assay (thymidine uptake); format: cell-based; conditions: Homo sapiens; OCI-LY19 (DLBCL), 48 hours then thymidine pulse; read-out: IC50 (μM) on Cell proliferation
Method: as §1, §2, §3

[1] = tested on: NF-κB, DNA damage and apoptotic pathways in lymphoma cell lines; assay: Luminex analysis of NF-κB, DNA damage and apoptotic pathway signaling; format: cell-based; conditions: 1 μM, 48 hours
Excerpt: Signaling changes in NF-κB [MILLIPLEXMAP NF-κB Signaling Magnetic Bead Kit 6-plex Kit, EMD Millipore, analytes: c-MYC, FADD (Ser194), IκBα (Ser32), IKKα/β (Ser177/Ser181), NF-κB (Ser536), TNFR1], DNA damage [MILLIPLEX MAP DNA Damage/Genotoxicity Magnetic Bead Panel, EMD Millipore, analytes: ATR (total), Chk1 (Ser345), Chk2 (Thr68), H2A.X (Ser139), MDM2 (total), p21 (Total), p53 (Ser15)], and apoptotic pathways [Bio-plex pro RBM apoptosis panel 2 and 3, Bio-Rad, analytes: Bad, Bax/Bcl-2 dimer, Bcl-xL, Bim, Mcl-1, active caspase 3, Bcl-xL/Bak dimer, Mcl-1/Bak dimer, survivin] associated with 1 μM 9-ING-41 treatment for 48 hours as compared to no-treatment controls were determined using Luminex multiplex technology with a FLEXMAP 3D instrument, as per manufacturer instructions. Cells were lysed in MILLIPLEX MAP Lysis buffer supplemented with protease inhibitor cocktail (Sigma) and phosphatase inhibitor cocktails 2 and 3 (Sigma) and, after BCA protein determination, 15 μg of protein was added to each well. All samples were run in duplicate and changes in MFI or absolute quantity between 9-ING-41-treated cells and nontreated control were analyzed, and an unpaired t-test was performed to determine statistical significance.

Jeko derived xenograft = assay: Jeko derived MCL xenograft mouse model; format: in vivo; conditions: NSG mice, 40 mg/kg every other day IP, day 17
Excerpt: The images shown were collected at the end of the experiment (day 17). […] An MCL xenograft mouse model was established by subcutaneously injecting NGS mice with Jeko cells expressing the firefly luciferase reporter gene Fluc. NSG (NOD.Cg-PrkdcscidIl2rgtm1Wjl/SzJ) mice used in these experiments were purchased from the Jackson Laboratory (Bar Harbor, Maine). Eight to ten mice of same sex at 8 weeks of age were subcutaneously injected with 5×10^6 Fluc expressing Jeko cells in the right flanks. Tumor engraftment was verified by imaging 4 days after Jeko cell inoculation. […] Tumor volumes were measured by an IVIS Imager (Xenogen, Alameda, CA) 20 minutes after IP injection of 200 ul of 15 mg/ml D-leuciferin (GoldBio, St. Louis, MO) and anesthetized with 2.5% isoflurane. All imaging variables were kept consistent for comparativeness. The experiment terminated when the largest tumor met the size limit of the IACUC protocol.

[2] = tested on: SUDHL-4, KPUM-UH1, Karpas 22, or TMD8 lymphoma cells; assay: cells; format: cell-based
Method: FIGS. 1A-1E show the viability and proliferation of lymphoma cells with 9-ING-41 treatment. 10,000 cells (SUDHL-4 (FIG. 1B), KPUM-UH1 (FIG. 1C), Karpas 422 (FIG. 1D), TMD8 (FIG. 1E)) per 96-well plate well were left untreated or treated with 1 μM 9-ING-41 in triplicate, and the number of cells on days 1, 3, 5 and 7 were calculated using the MTS assay. Briefly, 20 μL of MTS reagent was added to cells and incubated for 2 hours and, the absorbance at 490 nm (A490) was read using a Biotek plate reader. Absorbance at OD=490 nm increases proportionally to cell density. Error bars represent std. deviation between replicates.
Daudi (Burkitt) and SUDHL-4 (germinal center (GC) diffuse large B-cell lymphoma (DLBCL)) cell lines were purchased from […]. (ATCC). KPUM-UH1 (double hit DLBCL) cells were obtained from Junya Kuroda, Kyoto Prefectural University of Medicine, Kyoto, Japan. All cell lines were cultured aseptically and maintained in a water-jacketed incubator (Thermo-Forma) at 37° C. with 5% CO2 and fed with RPMI-1640 (Corning) containing […] glutamine, 10% FBS (Sigma), and antibiotic and antimycotic reagent (Gemini Bioproducts; final concentrations—100 units/mL penicillin G, 100 μg/mL streptomycin sulfate, and 250 ng/mL amphotericin B). Karpas 422 (GC-DLBCL) cells was purchased from Sigma. […] All cell numbers for assays were quantified using a TC20 automated cell counter (BioRad). […]
Cell viability at day 3 and proliferation over the course of 7 days were measured after treating cells with varying concentrations of 9-ING-41 using the Promega CellTiter 96® AQueous One Solution Cell Proliferation Assay reagent (MTS) in accordance with the manufacturer's instructions. […] The absorbance at 490 nm (A490) was determined using a Powerwave XS plate reader (Biotek).
All lymphoma cell lines used in this study express active GSK-3β. SUDHL-4, KPUM-UH1, […], or TMD8 lymphoma cells were plated, and cell numbers on days 1, 3, 5 and 7 were measured using the MTS assay. […]

Q: Which IC50 (Jeko) does the source give for Cn1cc(C2=C(c3coc4ccc(F)cc34)C(=O)NC2=O)c2cc3c(cc21)OCO3 [9-ING-41, 3-(5-Fluorobenzofuran-3-yl)-4-(5-methyl-5H-[1,3]dioxolo[4,5-f]indol-7-yl)pyrrole-2,5-dione] here?
A: 0.94 µM

Q: What about the IC50 (SU-DHL6) of the same compound?
A: 0.84 µM

Q: What about the IC50 (MyLa) of the same compound?
A: 0.19 µM

Q: And the IC50 (Granta-519)?
A: 0.38 µM

Q: What about the IC50 (OCI-LY19) of the same compound?
A: 1.96 µM

Q: What about the “Total c-MYC levels” value ([1]; Karpas 422 and TMD8 cell lines) of the same compound?
A: significant reduction

Q: What about the “DNA damage signaling, p-H2A.X (Ser139)” value ([1]; SUDHL-4 and Karpas 422 cell lines, p<0.05) of the same compound?
A: increased

Q: And the “phospho-p53 (Ser15)” value ([1]; SUDHL-4 and TMD8 cells)?
A: significant increase

Q: What about the “Reduction in Bcl-x1/Bak dimer expression” value ([1]; all cell lines except TMD8, p<0.05) of the same compound?
A: ~1.5 fold

Q: And the “Reduction in Mcl-1/Bak dimers” value ([1]; all lymphoma cell lines except KPUM-UH1, p<0.05)?
A: ~2 fold

Q: And the “Active caspase 3” value ([1]; all lymphoma cell lines except TMD8)?
A: increase in active caspase 3

Q: And the Reduction in survivin ([1]; all lymphoma cell lines except TMD8, p<0.05)?
A: ~2 fold

Q: And the “Tumor size and luciferase activity versus control” value (Jeko derived xenograft)?
A: smaller tumors with much lower luciferase activity

Q: And the “Proliferation on day 7, relative to control” value ([2]; 1 μM 9-ING-41, day 7, all lymphoma cell lines, p<0.05)?
A: less than 30%

Q: What about the cytotoxicity at 1 µM ([2]; 72 h, read-out: Reduction of cell viability on day 3) of the same compound?
A: 40 to 70%

Q: And the “Concentration at which a reduction in viability was seen” value ([2]; tested 0.1, 0.5, 1, 5 and 10 μM)?
A: ≥ 0.5 µM
